Assay results published in BindingDB's records for doi:10.1016/j.bmc.2017.01.005 (University of New Mexico, 2017).

target: T1, Nuclear factor erythroid 2-related factor 2 (Homo sapiens, UniProt Q16236); experiment: Activation of Nrf2 (unknown origin) expressed in human HepG2 cells after 5 hrs by ARE-driven luciferase reporter gene assay
T1 sequence (Q16236 whole entry): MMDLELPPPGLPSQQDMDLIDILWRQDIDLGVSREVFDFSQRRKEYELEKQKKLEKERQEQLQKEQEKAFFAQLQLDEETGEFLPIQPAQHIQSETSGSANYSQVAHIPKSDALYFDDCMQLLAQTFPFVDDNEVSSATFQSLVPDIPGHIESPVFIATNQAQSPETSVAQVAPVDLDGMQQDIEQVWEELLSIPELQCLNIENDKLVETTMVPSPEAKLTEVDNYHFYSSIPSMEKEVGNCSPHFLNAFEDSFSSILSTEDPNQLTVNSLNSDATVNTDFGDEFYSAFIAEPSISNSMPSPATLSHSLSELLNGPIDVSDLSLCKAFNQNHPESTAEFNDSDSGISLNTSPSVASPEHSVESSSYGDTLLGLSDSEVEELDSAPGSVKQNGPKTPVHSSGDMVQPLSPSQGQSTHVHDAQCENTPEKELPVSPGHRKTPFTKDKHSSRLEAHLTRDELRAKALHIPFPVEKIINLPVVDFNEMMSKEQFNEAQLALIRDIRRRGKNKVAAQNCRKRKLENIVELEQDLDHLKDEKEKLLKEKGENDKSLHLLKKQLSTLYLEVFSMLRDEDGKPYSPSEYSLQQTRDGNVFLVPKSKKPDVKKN

Row | SMILES | EC50 [µM]
1 | COc1cccc(/C=C/c2ccc(C)cc2)c1OC | 1.1
2 | Fc1cccc(/C=C/c2ccc(F)cc2F)c1 | 0.45
3 | COc1cccc(/C=C/c2ccccc2OC)c1 | 4.4
4 | COc1ccccc1/C=C/c1ccccc1F | 3.1
5 | Fc1cccc(/C=C/c2ccc(F)c(F)c2)c1 | 5
6 | COc1ccc(/C=C/c2ccccc2Cl)cc1 [US8980954, 6j] | 3.1
7 | COc1ccc(/C=C/c2cc(F)ccc2F)cc1 | 3.2
8 | COc1cccc(/C=C/c2cccc(F)c2)c1 | 2.3
9 | Fc1ccc(/C=C/c2ccccc2)cc1 | 12.4
10 | Oc1ccc(/C=C/c2cc(O)cc(O)c2)cc1 [5-[(E)-2-(4-hydroxyphenyl)ethenyl]benzene-1,3-diol] | 5.4
11 | O=[N+]([O-])c1cccc(/C=C/c2ccccc2)c1 | 3
12 | COc1ccc(/C=C/c2ccccc2F)cc1 [US8980954, 6p] | 5.4
13 | COc1ccc(/C=C/c2ccc(O)c(OC)c2)cc1 | 3.7
14 | Fc1cccc(/C=C/c2ccccc2F)c1 | > 15
15 | COc1cccc(/C=C/c2ccc(F)cc2)c1 | 6
16 | Fc1ccccc1/C=C/c1ccccc1 | 0.7
17 | COc1ccc(/C=C/c2cccc(F)c2)cc1OC [4-(3-fluorostyryl)-1,2-dimethoxybenzene] | 9.5
18 | Fc1cccc(/C=C/c2cc(F)ccc2F)c1 | 0.3
19 | Cc1ccc(/C=C/c2cccc(F)c2)cc1 | 0.8

Row | SMILES | EC50 [µM]
20 | COc1ccc(/C=C/c2ccc(F)c(F)c2)cc1 | > 15
21 | Fc1ccccc1/C=C/c1ccc(Cl)cc1 | 1.6
22 | Fc1ccc(/C=C/c2cccc(F)c2)cc1 | 0.65
23 | Cc1ccc(/C=C/c2cccc(C(F)(F)F)c2)cc1 | 1.5
24 | COc1cccc(/C=C/c2ccccc2F)c1 | 3.8
25 | COc1cccc(/C=C/c2ccccc2)c1OC | 4.7
26 | Cc1ccc(/C=C/c2ccc(F)c(F)c2)cc1 | 2.6
27 | COc1ccc(/C=C/c2ccc(F)cc2)cc1 | 4.2
28 | Fc1ccc(/C=C/c2ccccc2F)cc1 | 3.6
29 | COc1cccc(/C=C/c2ccc(F)cc2)c1OC | 2.9
30 | Fc1ccc(/C=C/c2ccccc2F)c(F)c1 | 9.6
31 | Cc1ccc(/C=C/c2ccc(F)cc2F)cc1 | 2
32 | COc1ccccc1/C=C/c1ccccc1 | 4.4
33 | COc1ccc(/C=C/c2cccc(O)c2)cc1 | > 15
34 | COc1cccc(/C=C/c2ccc(C(F)(F)F)cc2)c1OC | 2.2
35 | Fc1ccccc1/C=C/c1ccccc1F | 4.3
36 | Fc1ccc(F)c(/C=C/c2ccccc2F)c1 | 5.9
37 | COc1ccc(OC)c(/C=C/c2ccc(OC)cc2OC)c1 | 0.8
38 | Fc1ccc(/C=C/c2ccc(F)cc2F)cc1 | 0.9

Row | SMILES | EC50 [µM]
39 | Fc1cccc(F)c1/C=C/c1ccccc1 | 6.9
40 | Fc1ccccc1/C=C/c1c(F)cccc1F | 1.4
41 | Fc1ccc(/C=C/c2cc(F)ccc2F)cc1 | 2.9
42 | COc1ccc(/C=C/c2cccc(F)c2)cc1 [US8980954, 6n] | 8.9
43 | COc1ccc(/C=C/c2cccc([N+](=O)[O-])c2)cc1 | 3.3
44 | Fc1ccc(/C=C/c2ccc(F)c(F)c2)cc1 | > 15
45 | COc1cccc(/C=C/c2ccc(C(C)C)cc2)c1OC | 2.7
46 | Fc1cccc(/C=C/c2cccc(F)c2)c1 | 1
47 | COc1ccc(/C=C/c2ccc(F)cc2)cc1OC | 2.6
48 | Cc1ccc(/C=C/c2ccccc2F)cc1 | 1.4
49 | COc1ccc(OC)c(/C=C/c2ccc(F)cc2)c1 | 5.1
50 | Oc1ccc(/C=C/c2ccccc2F)cc1 | 11.4
51 | COc1cccc(/C=C/c2cc(OC)ccc2OC)c1 | > 15
52 | COc1cccc(/C=C/c2cccc(F)c2)c1OC | 1.9
53 | Cc1ccc(/C=C/c2ccc(F)cc2)cc1 | 1.3
54 | Fc1cccc(/C=C/c2ccccc2)c1 | 3.1
55 | COc1ccc(/C=C/c2ccc(OC)cc2OC)cc1 [(E)2'',4,4''-Trimethoxystilbene] | 4.6
56 | Cc1ccc(/C=C/c2cccc([N+](=O)[O-])c2)cc1 | 3.7
57 | Fc1ccc(/C=C/c2ccccc2F)cc1F | > 15
